Source: PubChem BioAssay (NCI)
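Compound exposure: 48 hours, 5 concentrations, 96-well plates. TGI marks complete inhibition of growth.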

Tests used:
Test in all cases: growth of human tumour cells (NCI), 48 h
786-0 renal = test system: 786-0 renal
BT-549 breast = test system: BT-549 breast
HL-60(TB) leukemia = test system: HL-60(TB) leukemia
IGROV1 ovarian = test system: IGROV1 ovarian
K-562 leukemia = test system: K-562 leukemia
LOX IMVI melanoma = test system: LOX IMVI melanoma
MDA-N = test system: MDA-N
MOLT-4 leukemia = test system: MOLT-4 leukemia
NCI-H226 lung = test system: NCI-H226 lung
NCI-H460 lung = test system: NCI-H460 lung
NCI/ADR-RES ovarian = test system: NCI/ADR-RES ovarian
OVCAR-3 ovarian = test system: OVCAR-3 ovarian
OVCAR-4 ovarian = test system: OVCAR-4 ovarian
RPMI-8226 leukemia = test system: RPMI-8226 leukemia
RXF 393 renal = test system: RXF 393 renal
SF-539 CNS = test system: SF-539 CNS
SK-OV-3 ovarian = test system: SK-OV-3 ovarian
SNB-19 CNS = test system: SNB-19 CNS
TK-10 renal = test system: TK-10 renal
UACC-62 melanoma = test system: UACC-62 melanoma

`CC/C(Cl)=N\OC(=O)Nc1ccc(C#N)cc1` showed a TGI (786-0 renal) of 23.5 µM, a TGI (BT-549 breast) of 28.3 µM and a TGI (HL-60(TB) leukemia) of 6.2 µM. It also gave a TGI (IGROV1 ovarian) of 30.6 µM, a TGI (K-562 leukemia) of 4.28 µM and a TGI (LOX IMVI melanoma) of 15.9 µM. It also gave a TGI (MDA-N) of 30 µM, a TGI (MOLT-4 leukemia) of 11 µM and a TGI (NCI-H226 lung) of 30.9 µM. It also gave a TGI (NCI-H460 lung) of 36.2 µM, a TGI (NCI/ADR-RES ovarian) of 18.3 µM and a TGI (OVCAR-3 ovarian) of 32.7 µM. It also gave a TGI (OVCAR-4 ovarian) of 23.6 µM, a TGI (RPMI-8226 leukemia) of 8.66 µM and a TGI (RXF 393 renal) of 21.4 µM. For the same compound, the TGI (SF-539 CNS) was 30.5 µM, the TGI (SK-OV-3 ovarian) was 22.3 µM and the TGI (SNB-19 CNS) was greater than 100 µM. The TGI (TK-10 renal) was 30.1 µM and the TGI (UACC-62 melanoma) was 28.4 µM.
`CC(C)(C)OC(=O)NC(Cc1ccc([N+](=O)[O-])cc1)C(=O)NC(CCCCNC(=O)OCc1ccccc1)C(=O)ON1C(=O)CCC1=O` (stereo not given) showed a TGI (786-0 renal) greater than 100 µM, a TGI (BT-549 breast) greater than 100 µM and a TGI (HL-60(TB) leukemia) greater than 100 µM. It also gave a TGI (IGROV1 ovarian) greater than 100 µM, a TGI (K-562 leukemia) of 73.1 µM and a TGI (LOX IMVI melanoma) greater than 100 µM. For the same compound, the TGI (MDA-N) was greater than 100 µM, the TGI (MOLT-4 leukemia) was greater than 100 µM and the TGI (NCI-H226 lung) was greater than 100 µM. The TGI (NCI-H460 lung) was greater than 100 µM, the TGI (NCI/ADR-RES ovarian) was greater than 100 µM and the TGI (OVCAR-3 ovarian) was greater than 100 µM. The TGI (OVCAR-4 ovarian) was greater than 100 µM, the TGI (RPMI-8226 leukemia) was greater than 100 µM and the TGI (RXF 393 renal) was greater than 100 µM. It also gave a TGI (SF-539 CNS) greater than 100 µM, a TGI (SK-OV-3 ovarian) greater than 100 µM and a TGI (SNB-19 CNS) greater than 100 µM. The TGI (TK-10 renal) was greater than 100 µM and the TGI (UACC-62 melanoma) was greater than 100 µM.
`CC(Cc1ccc(O)c(O)c1)C(C)Cc1ccc(O)c(O)c1` (stereo not given) was tested, and the TGI (786-0 renal) was 32.8 µM, the TGI (BT-549 breast) was 26.8 µM and the TGI (HL-60(TB) leukemia) was 10.3 µM. For the same compound, the TGI (IGROV1 ovarian) was 33.6 µM, the TGI (K-562 leukemia) was greater than 62.7 µM and the TGI (LOX IMVI melanoma) was 38.8 µM. It also gave a TGI (MDA-N) of 26.3 µM, a TGI (MOLT-4 leukemia) greater than 62.5 µM and a TGI (NCI-H226 lung) of 59.8 µM. For the same compound, the TGI (NCI-H460 lung) was 35 µM, the TGI (NCI/ADR-RES ovarian) was 64.7 µM and the TGI (OVCAR-3 ovarian) was 27.4 µM. The TGI (OVCAR-4 ovarian) was 29.5 µM, the TGI (RPMI-8226 leukemia) was greater than 63.8 µM and the TGI (RXF 393 renal) was 31.7 µM. The TGI (SF-539 CNS) was 33.9 µM, the TGI (SK-OV-3 ovarian) was 84 µM and the TGI (SNB-19 CNS) was 50.9 µM. For the same compound, the TGI (TK-10 renal) was greater than 87.7 µM and the TGI (UACC-62 melanoma) was 32.8 µM.
